Results taken from article PMC11274654 (Biomedicines, 2024).

Legend:
[1] = system: femur head strength of OVX rats; assay: OVX osteopenia model, femur head compression test; format: in vivo, SD rats; conditions: 235 mg/kg oral, 3 months
Protocol: The 10-month-old (265 ± 20 g) SD rats were ovariectomized (OVX) bilaterally and left for 3 months to develop osteopenia. Ovary-intact sham-operated animals were used as a control. A live animal micro-CT was performed to confirm osteopenia, followed by dividing the animals into 3 groups: Sham + vehicle (water, oral), OVX + vehicle (water, oral), and OVX + MTZ (235 mg/kg, oral). Each group had 9 rats, and treatment were administered for 3 months. Calcein (20 mg/kg, s.c.) was injected twice before sacrificing at 10-day intervals. The mechanical compression strength of the femur head was examined by a compression test with a bone strength tester, TK […] (Muromachi Kikai Co., Ltd., Tokyo, Japan), as described before.

[2] = system: Rat Calvarial Osteoblasts (RCOs); assay: ALP assay (osteoblast differentiation) in rat calvarial osteoblasts; format: cell-based
Protocol: Sequential digestion was performed to isolate calvarial osteoblast cells from neonatal rat pups. Briefly, calvariae were harvested from ten to twelve 1–2-day old rat pups, cleaned, and subjected to five sequential enzymatic digestions (0.1% dispase and 0.1% collagenase I) of 10–15 min each, followed by culturing of the harvested cells in α-MEM supplemented with 10% FBS [22].
RCOs were seeded in 24-well plates (1 × 10^4 cells/well), and the cells were treated for 48 h in osteoblast differentiation media (α-MEM supplemented with 10 mM β-glycerophosphate and 50 μg/mL ascorbic acid) with the imidazole group of chemicals (10^−11 M–10^−6 M).
A total of 2 mg/mL of para-Nitrophenyl phosphate in diethanolamine buffer was used to measure the ALP activity at a 405 nm wavelength.

[3] = system: trabecular bone of OVX osteopenic rats; assay: OVX osteopenia model, micro-CT of trabecular bone; format: in vivo, SD rats; conditions: 235 mg/kg oral, 3 months
Protocol: The 10-month-old (265 ± 20 g) SD rats were ovariectomized (OVX) bilaterally and left for 3 months to develop osteopenia. Ovary-intact sham-operated animals were used as a control. A live animal micro-CT was performed to confirm osteopenia, followed by dividing the animals into 3 groups: Sham + vehicle (water, oral), OVX + vehicle (water, oral), and OVX + MTZ (235 mg/kg, oral). Each group had 9 rats, and treatment were administered for 3 months. Calcein (20 mg/kg, s.c.) was injected twice before sacrificing at 10-day intervals. A SkyScan 1076 μCT scanner (SkyScan, Ltd., Kartuizersweg, Kontich, Belgium) was used to perform a high-resolution μCT for the two-dimensional and three-dimensional assessment of excised bones. The rat bone scanning process used an isotropic voxel pixel size of 18 μm and an X-ray source of 70 kV and […]. Utilizing the SkyScan Nrecon software (Version: 1.7.0.4), cross-sectional reconstruction was performed. In order to examine the trabecular region of the femur and tibia, 100 slices were used to draw the region of interest (ROI), which was limited to the secondary spongiosa region 1.5 mm from the growth plate’s distal border. The primary spongiosa and cortical bone were not included in the ROI. A ROI was drawn on 70 slices of the mid-vertebral region for the L5 vertebral study. The Batman software (Version: 1.16.8.0+), with trabecular (3D) bone analysis programs was used for quantification.

[4] = system: Runx2 expression in C3H10T1/2 cells; assay: Western blotting of Runx2 in C3H10T1/2 cells; format: cell-based, murine; conditions: 10 nM
Protocol: (§1) Western blotting was performed as previously described. Briefly, whole-cell extracts (WCEs) were prepared at indicated time points using RIPA lysis buffer, and aliquots of 30 μg protein per lane were loaded and resolved on SDS-PAGE (10%), followed by blotting onto the PVDF membrane (Millipore Inc., Burlington, MA, USA). The membrane was blocked in 1% BSA, followed by immunoblotting with primary antibodies: Runx2 (ab 76956) (1:1000), pGSK (9323S) (1:1000), and GSK (9315S) (1:1000) at 4 °C overnight. Anti-rabbit HRP secondary antibody (Sigma, catalog number A0545) (1:3000) was used for Runx2, pGSK3β, and GSK3β. Bands were detected by incubating the membranes with ECL substrate (Thermo Fisher Scientific, Waltham, MA, USA) and developed on ChemiDoc (Image Quant LAS 4000, GE Healthcare, Hatfield, UK). Blots were re-probed after washing with mild stripping buffer (1.5% Glycine, 0.1% SDS, and 1% Tween 20).

[5] = system: GSK3β phosphorylation in RCO; assay: Western blotting of p-GSK/GSK in RCO; format: cell-based, rat; conditions: 10 nM
Protocol: as §1

[6] = system: β-catenin nuclear translocation in osteoblasts (RCO); assay: Immunofluorescence of β-catenin nuclear translocation in RCO; format: cell-based, rat; conditions: 10 nM
Protocol: RCOs were grown on Lab-Tek Chamber Slides (Nunc, Penfield, NY, USA) to 40–50% confluence for 24 h. After treatment with MTZ at different time points, cells were fixed with 4% formaldehyde, followed by permeabilization with 0.1% Triton™ X-100 for 15 min, blocked with 2% goat serum for 2 h, and labeled with primary antibody against β-catenin (Cell Signaling Technology, Danvers, MA, USA, catalog number 9562S) (1:100) overnight at 4 °C in a moist chamber. Alexa Fluor® 594 (Abcam, Cambridge, UK, catalog number ab150080) was used as a secondary antibody (1:200 dilution) for 2 h at room temperature. […]

[7] = system: bone formation in femur metaphysis of OVX rats; assay: OVX osteopenia model, dynamic bone histomorphometry (double calcein labeling); format: in vivo, SD rats; conditions: 235 mg/kg oral, 3 months
Protocol: The 10-month-old (265 ± 20 g) SD rats were ovariectomized (OVX) bilaterally and left for 3 months to develop osteopenia. Ovary-intact sham-operated animals were used as a control. A live animal micro-CT was performed to confirm osteopenia, followed by dividing the animals into 3 groups: Sham + vehicle (water, oral), OVX + vehicle (water, oral), and OVX + MTZ (235 mg/kg, oral). Each group had 9 rats, and treatment were administered for 3 months. Calcein (20 mg/kg, s.c.) was injected twice before sacrificing at 10-day intervals.
Two calcein injections were spaced ten days apart for double calcein labeling to perform dynamic histomorphometric assessments. A previously published protocol was used to calculate the bone formation rate/total bone surface (BFR/BS), mineralizing surface/bone surface (MS/BS), and mineral apposition rate (MAR).

[8] = femur and tibia metaphyses, OVX rats
[9] = proximal femur and tibia metaphyses, OVX rats

Cc1ncc([N+](=O)[O-])n1CCO [Metronidazole]
Energy (femur head compression) [1]: reversed both parameters to sham levels
Maximum power (femur head compression) [1]: reversed both parameters to sham levels
Stiffness (femur head compression) [1]: failed to increase it
Activity in ALP Assay (Positive/Negative) ([2]; 48 h): Positive
Effect on ALP activity compared to the control (vehicle) ([2]; 48 h): significantly increased
EC50 ([2]; Rattus norvegicus, Calvarial osteoblast, 48 h in osteoblast differentiation media): 1.2 nM
Trabecular bone parameters at vertebra (L5) ([3]; L5, OVX rats): failed to restore
Trabecular number (Tb.N) [3, 8]: significant enhancement
Trabecular spacing (Tb.sp) [3, 8]: restored trabecular spacing (Tb.sp) to sham levels
Trabecular thickness (Tb.Th) [3, 8]: complete restoration
BMD [3, 9]: significantly increased
Bone volume (BV/TV) [3, 9]: significantly increased
Runx2 expression [4]: increased
GSK3β phosphorylation [5]: increased GSK3β phosphorylation in a time-dependent manner
Time of maximum effect on GSK3β phosphorylation [5]: 15 min
β-catenin nuclear translocation [6]: induced
BFR [7]: reversed all parameters to sham levels
MAR [7]: reversed all parameters to sham levels
MS/BS [7]: reversed all parameters to sham levels
